The results in this text go back to patent publication US20240397940A1, “COMPOSITIONS COMPRISING A SATURATED OR UNSATURATED ALIPHATIC ACID AND A NON-IONIC SURFACTANT FOR ENHANCING PENETRATION OF PESTICIDE COMPONENT” (TERRAMERA, INC., priority 2021, published 2024).

Holding throughout (format): in vitro ADME
Data set [1] concerns waxy cuticles of whole wheat leaves. The data set is described as follows: Franz cell leaf penetration of pyraclostrobin, Headline SC (Example 8). To be noted: penetration ratio of pyraclostrobin (236 ppm, Headline SC), 5-Hexenoic acid 1,000 ppm and adjuvant 1,000 ppm where included, 24 hours. How it is done: (§1) This ratio may be expressed based on:
(§2) Several donor solutions were prepared to assess penetration of a strobilurin fungicide active ingredient, namely pyraclostrobin, across waxy cuticles of whole wheat leaves. Each donor solution comprised Headline® SC, a commercially available fungicide from BASF Corporation comprising pyraclostrobin. Such donor solutions comprised 236 ppm pyraclostrobin. Certain donor solutions included an aliphatic acid, namely 5-Hexenoic acid. Such donor solutions comprised 1,000 ppm 5-Hexenoic acid. […] In this example, the adjuvants tested were non-ionic surfactants comprising C11 linear alcohol ethoxylates (available from Stepan Company of Northfield, IL as Biosoft® N1-5, Biosoft® N1-7, and Biosoft® N1-9).
(§3) The permeation period was 24 hours. […] The powderized leaf was mixed with acetone as a solvent.

Data set [2] shares this test system. The data set is described as follows: Franz cell leaf penetration of pyraclostrobin, Headline EC (Example 6). Particulars: penetration ratio of pyraclostrobin (236 ppm, Headline EC), 5-Hexenoic acid 1,000 ppm and adjuvant 1,000 ppm where included, 24 hours. How it is done:
as §1
as §2, with “comprised Headline® EC, a commercially” for “comprised Headline® SC, a commercially”, “ppm pyraclostrobin. Pyraclostrobin is also commercially available in end-user product form from BASF Corporation as Headline® SC fungicide. Certain donor” for “ppm pyraclostrobin. Certain donor”, “solutions included 1,000 ppm” for “solutions included an aliphatic acid, namely 5-Hexenoic acid. Such donor solutions comprised 1,000 ppm”
as §3

Data set [3] has the same test system. The data set is described as follows: Franz cell leaf penetration of epoxiconazole (Example 7). To be noted: 24 h, 50 ppm. How it is done: as §1
Several donor solutions were prepared to assess penetration of an azole fungicide, namely epoxiconazole, across waxy cuticles of whole wheat leaves. Epoxiconazole TGAI was provided in each donor solution at a rate of 50 ppm. Epoxiconazole is available from MilliporeSigma, St. Louis, MO, USA, and Shanghai Terppon Chemical Co., Ltd., Shanghai, China as a technical grade active ingredient. Certain donor solutions comprised 500 ppm 3-Nonenoic acid.
as §3

Data set [4] has the same test system. The data set is described as follows: Franz cell leaf penetration of 5-Hexenoic acid (Example 4). Particulars: penetration ratio of 5-Hexenoic acid (1,000 ppm), pyraclostrobin 236 ppm (Headline EC) and adjuvant 1,000 ppm where included, 24 hours. As for the experimental part:
as §1
Several donor solutions were prepared to assess penetration of 5-Hexenoic acid across waxy cuticles of whole wheat leaves. Each donor solution comprised 1,000 ppm 5-Hexenoic acid (except where otherwise noted). Certain donor solutions included a strobilurin fungicide, namely pyraclostrobin. Such donor solutions comprised Headline® EC, a commercially available fungicide from BASF Corporation comprising pyraclostrobin. Such donor solutions comprised 236 ppm pyraclostrobin. […] In this example, the adjuvants tested were non-ionic surfactants comprising C11 linear alcohol ethoxylates (available from Stepan Company of Northfield, IL as Biosoft® N1-5, Biosoft® N1-7, and Biosoft® N1-9).
as §3

The subject of data set [5] is waxy cuticles of whole soybean leaves. The data set is described as follows: Franz cell leaf penetration of trans-2-Hexenoic acid, Mero (Example 15). To be noted: penetration ratio of trans-2-Hexenoic acid (1,500 ppm), azoxystrobin 343.5 ppm (Quadris) and Mero 31.3 ppm where included, 24 hours. As for the experimental part:
as §1
Each donor solution comprised 1,500 ppm trans-2-Hexenoic acid. Certain donor solutions included a strobilurin fungicide, namely azoxystrobin. Such donor solutions comprised Quadris®, a commercially available fungicide from Syngenta Crop Protection comprising azoxystrobin. Such donor solutions comprised 343.5 ppm azoxystrobin.
(§4) The permeation period was 24 hours.

The test system is the same in data set [6]. The data set is described as follows: Franz cell leaf penetration of trans-2-Hexenoic acid, Biosoft adjuvants (Example 2). Particulars: penetration ratio of trans-2-Hexenoic acid (1,500 ppm), azoxystrobin 343.5 ppm (Quadris) and adjuvant 1,000 ppm where included, 24 hours.
Excerpt: as §1
Each donor solution comprised 1,500 ppm trans-2-Hexenoic acid. Certain donor solutions included a strobilurin fungicide, namely azoxystrobin. Such donor solutions comprised Quadris®, a commercially available fungicide from Syngenta Crop Protection comprising azoxystrobin. Such donor solutions comprised 343.5 ppm azoxystrobin. […] In this example, the adjuvants tested were non-ionic surfactants comprising C11 linear alcohol ethoxylates (available from Stepan Company of Northfield, IL as Biosoft® N1-5, Biosoft® N1-7, and Biosoft® N1-9).
as §4

For data set [7] the test system is unchanged. The data set is described as follows: Franz cell leaf penetration of azoxystrobin, Mero (Example 14). Particulars: penetration ratio of azoxystrobin (343.5 ppm, Quadris), trans-2-Hexenoic acid 1,500 ppm and Mero 31.3 ppm where included, 24 hours. As for the experimental part: as §1
Several donor solutions were prepared to assess penetration of a strobilurin fungicide, namely azoxystrobin, across waxy cuticles of whole soybean leaves. Each donor solution comprised Quadris®, a commercially available fungicide from Syngenta Crop Protection comprising azoxystrobin. Such donor solutions comprised 343.5 ppm azoxystrobin. Certain donor solutions included 1,500 ppm trans-2-Hexenoic acid.
as §4

In data set [8] the test system is waxy cuticles of whole wheat leaves. The data set is described as follows: Franz cell leaf penetration of 3-Octenoic acid (Example 3). To be noted: penetration ratio of 3-Octenoic acid (500 ppm), epoxiconazole TGAI 50 ppm and adjuvant 1,000 ppm where included, 24 hours. How it is done: as §1
(§5) Several donor solutions were prepared to assess penetration of 3-Octenoic acid across waxy cuticles of whole wheat leaves. Each donor solution comprised 500 ppm 3-Octenoic acid. Certain donor solutions included an azole fungicide, namely epoxiconazole technical grade active ingredient (TGAI) fungicide, each at a rate of 50 ppm. Epoxiconazole is commercially available from MilliporeSigma, St. Louis, MO, USA, as a technical grade active ingredient. […] In this example, the adjuvants tested were non-ionic surfactants comprising C11 linear alcohol ethoxylates (available from Stepan Company of Northfield, IL as Biosoft® N1-5 and Biosoft®) N1-7).
as §3

The test system is the same in data set [9]. The data set is described as follows: Franz cell leaf penetration of 3-Nonenoic acid (Example 5). To be noted: penetration ratio of 3-Nonenoic acid (500 ppm), epoxiconazole TGAI 50 ppm and adjuvant 1,000 ppm where included, 24 hours. As for the experimental part:
as §1
as §5, with “3-Nonenoic” for “3-Octenoic”, “N1-5, Biosoft® N1-7,” for “N1-5”, “Biosoft® N1-9).” for “Biosoft®) N1-7).”
as §3

Molecules are shown by their SMILES.

In the case of `COC(=O)N(OC)c1ccccc1COc1ccn(-c2ccc(Cl)cc2)n1` [Pyraclostrobin, pyraclostrobin], the “Pesticidal Active Ingredient Penetration” value was determined as 7.1% in data set [1] and 7.5% in data set [2].

As for `Fc1ccc([C@]2(Cn3cncn3)O[C@H]2c2ccccc2Cl)cc1` (racemic) [Epoxiconazole, epoxiconazole], the “Pesticidal Active Ingredient Penetration” value in data set [3] is given as 18.2%.

Regarding `C=CCCCC(=O)O` [5-Hexenoic acid], the “Aliphatic Acid Penetration” value in [4] is 6.8%.

As to `CCC/C=C/C(=O)O` [trans-2-hexenoic acid, trans-2-Hexenoic acid], the “Aliphatic Acid Penetration” value in [5] and in data set [6] was 13.2% in each case.

For `CO/C=C(/C(=O)OC)c1ccccc1Oc1cc(Oc2ccccc2C#N)ncn1` [Azoxystrobin, azoxystrobin], in [7], the “Pesticidal Active Ingredient Penetration” value is on record as 0.7%.

Turning to `CCCCC=CCC(=O)O` [3-octenoic acid, 3-Octenoic acid], in [8], the “Aliphatic Acid Penetration” value came out at 13.4%.

`CCCCCC=CCC(=O)O` [3-Nonenoic acid]: in data set [9], the “Aliphatic Acid Penetration” value is recorded as 17.6%.
